Test results published in the supplement of paper PMC10307832.

What was measured:
Experiment in all cases: relative viability (nuclei count vs DMSO), 5 days (fraction); higher = more cells survive
KIN001-266 + Vorinostat = compound: CCN1CCC(CC1)N2C=C(N=N2)CNC3=CC4=C(C(=CN=C4C(=C3)Cl)C#N)NC5=CC(=C(C=C5)F)Cl [KIN001-266] + O=C(CCCCCCC(=O)Nc1ccccc1)NO [Vorinostat] (partner 1 µM)
Outline: (§1)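 Medians of duplicate plates are given as relative viability. That measure is the nuclei count in treated wells divided by the count in vehicle wells. Counts were taken on 4× images of lung cancer cell lines in 1536-well plates, 5 days after pin-tool dosing the day after seeding with one drug alone or a fixed anchor-drug dose plus five library-drug doses (not always all listed) in √10 steps.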

KIN001-266 + Pemetrexed = compound: CCN1CCC(CC1)N2C=C(N=N2)CNC3=CC4=C(C(=CN=C4C(=C3)Cl)C#N)NC5=CC(=C(C=C5)F)Cl [KIN001-266] + Nc1nc2[nH]cc(CCc3ccc(C(=O)N[C@@H](CCC(=O)O)C(=O)O)cc3)c2c(=O)[nH]1 [Pemetrexed] (partner 0.2 µM)
Outline: as §1

KIN001-266 + Olaparib = compound: CCN1CCC(CC1)N2C=C(N=N2)CNC3=CC4=C(C(=CN=C4C(=C3)Cl)C#N)NC5=CC(=C(C=C5)F)Cl [KIN001-266] + O=C(c1cc(Cc2n[nH]c(=O)c3ccccc23)ccc1F)N1CCN(C(=O)C2CC2)CC1 [Olaparib] (partner 8 µM)
Outline: as §1

KIN001-266 + Linsitinib = compound: CCN1CCC(CC1)N2C=C(N=N2)CNC3=CC4=C(C(=CN=C4C(=C3)Cl)C#N)NC5=CC(=C(C=C5)F)Cl [KIN001-266] + C[C@]1(O)C[C@@H](c2nc(-c3ccc4ccc(-c5ccccc5)nc4c3)c3c(N)nccn32)C1 [Linsitinib] (partner 1 µM)
Outline: as §1

Cell Line	relative viability (KIN001-266 + Vorinostat; first compound 0.08 µM)	relative viability (KIN001-266 + Vorinostat; first compound 0.253 µM)	relative viability (KIN001-266 + Vorinostat; first compound 0.8 µM)	relative viability (KIN001-266 + Vorinostat; first compound 2.53 µM)	relative viability (KIN001-266 + Vorinostat; first compound 8 µM)	relative viability (KIN001-266 + Pemetrexed; first compound 0.08 µM)	relative viability (KIN001-266 + Pemetrexed; first compound 0.253 µM)	relative viability (KIN001-266 + Pemetrexed; first compound 0.8 µM)	relative viability (KIN001-266 + Pemetrexed; first compound 2.53 µM)	relative viability (KIN001-266 + Pemetrexed; first compound 8 µM)	relative viability (KIN001-266 + Olaparib; first compound 0.08 µM)	relative viability (KIN001-266 + Olaparib; first compound 0.253 µM)	relative viability (KIN001-266 + Olaparib; first compound 0.8 µM)	relative viability (KIN001-266 + Olaparib; first compound 2.53 µM)	relative viability (KIN001-266 + Olaparib; first compound 8 µM)	relative viability (KIN001-266 + Linsitinib; first compound 0.08 µM)	relative viability (KIN001-266 + Linsitinib; first compound 0.253 µM)	relative viability (KIN001-266 + Linsitinib; first compound 0.8 µM)	relative viability (KIN001-266 + Linsitinib; first compound 2.53 µM)	relative viability (KIN001-266 + Linsitinib; first compound 8 µM)
NCI-H3122	0.966	1.13	0.992	1.06	1.02	0.206	0.2	0.198	0.197	0.214	0.588	0.689	0.636	0.576	0.524	0.979	0.97	0.996	0.958	0.96
PC-3 [JPC-3]	0.856	0.887	0.801	0.987	0.847	1.08	1.09	1.14	1.1	0.965	1.09	1.21	1.08	1.14	0.963	0.99	0.934	0.941	0.958	0.896
PC-14	0.627	0.803	0.158	0.577	0.0881	0.161	0.133	0.164	0.113	0.186	0.24	0.354	0.251	0.312	0.141	0.953	1.06	1.01	0.97	0.442
RERF-LC-KJ	0.765	0.779	0.65	0.682	0.555	0.475	0.507	0.475	0.499	0.467	0.974	0.952	0.858	0.762	0.649	0.947	0.857	0.917	0.846	0.656
SK-LU-1	0.833	0.799	0.783	0.776	0.518	1.03	1	1.06	0.962	0.714	0.557	0.427	0.489	0.373	0.416	1.29	0.937	1.14	1.07	0.639
SK-MES-1	1.1	1.19	1.03	1.03	0.713	0.873	0.912	0.903	0.833	0.79	0.783	0.651	0.73	0.492	0.492	1.17	1.08	1.01	1	0.902
SW 1573	0.796	0.625	1.06	0.835	0.654	0.809	0.792	0.94	0.713	0.751	0.459	0.5	0.542	0.404	0.313	0.844	0.8	0.72	0.732	0.619
UMC-11	0.334	0.421	0.431	0.411	0.44	0.773	0.728	0.757	0.757	0.707	0.351	0.515	0.398	0.31	0.319	0.944	1.01	1.08	0.981	1.09
